Patent US20240246942A1, “KINASE INHIBITORS FOR THE TREATMENT OF NEURODEGENERATIVE DISEASES” (priority 2020, published 2024)
Where two headings read alike, the source gives them in different places.

What was measured:
Assay in all cases: biochemical
[1] = target: T1, panel of 374 wild-type kinases (Homo sapiens, UniProt Q14680); details: read-out: % Enzyme Activity (relative to DMSO controls), MELK
T1 construct: purchased Reaction Biology Corporation

[2] = target: T2, panel of 374 wild-type kinases (Homo sapiens, UniProt P29322); details: read-out: % Enzyme Activity (relative to DMSO controls), EPHA8
T2 construct: purchased Reaction Biology Corporation
T2 sequence (P29322 28-1005): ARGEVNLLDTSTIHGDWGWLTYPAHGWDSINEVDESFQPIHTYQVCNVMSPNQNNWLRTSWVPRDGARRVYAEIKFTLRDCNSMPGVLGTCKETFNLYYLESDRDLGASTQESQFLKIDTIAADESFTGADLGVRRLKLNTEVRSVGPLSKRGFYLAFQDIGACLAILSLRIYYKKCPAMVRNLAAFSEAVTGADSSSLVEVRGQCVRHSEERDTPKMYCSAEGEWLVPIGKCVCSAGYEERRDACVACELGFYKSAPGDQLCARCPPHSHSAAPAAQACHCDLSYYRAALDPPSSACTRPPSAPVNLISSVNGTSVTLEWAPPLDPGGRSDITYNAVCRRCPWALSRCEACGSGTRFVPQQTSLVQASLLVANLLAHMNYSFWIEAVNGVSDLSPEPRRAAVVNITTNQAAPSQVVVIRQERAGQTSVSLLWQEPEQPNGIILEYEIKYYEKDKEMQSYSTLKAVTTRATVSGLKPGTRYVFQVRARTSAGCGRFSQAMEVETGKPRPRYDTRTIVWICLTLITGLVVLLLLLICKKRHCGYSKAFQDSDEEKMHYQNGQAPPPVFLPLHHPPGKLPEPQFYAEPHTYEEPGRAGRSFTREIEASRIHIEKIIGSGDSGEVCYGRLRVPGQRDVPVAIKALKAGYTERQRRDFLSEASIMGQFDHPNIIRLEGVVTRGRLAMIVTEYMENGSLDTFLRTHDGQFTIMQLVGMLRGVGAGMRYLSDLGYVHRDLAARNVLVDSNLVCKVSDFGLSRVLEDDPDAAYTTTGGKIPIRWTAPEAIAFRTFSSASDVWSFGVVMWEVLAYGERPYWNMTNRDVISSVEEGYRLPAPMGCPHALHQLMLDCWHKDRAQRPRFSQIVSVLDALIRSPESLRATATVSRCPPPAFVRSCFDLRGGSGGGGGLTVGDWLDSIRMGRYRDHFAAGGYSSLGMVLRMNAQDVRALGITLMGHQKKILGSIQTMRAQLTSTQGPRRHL

[3] = target: T3, panel of 374 wild-type kinases (Homo sapiens, UniProt Q9BYT3); details: kinase STK33, read-out: % Enzyme Activity (relative to DMSO controls)
T3 construct: purchased Reaction Biology Corporation

[4] = target: T4, panel of 374 wild-type kinases (Homo sapiens, UniProt Q00526)
T4 construct: purchased Reaction Biology Corporation

[5] = target: T5, panel of 374 wild-type kinases (Homo sapiens, UniProt Q16513)
T5 construct: purchased Reaction Biology Corporation

[6] = target: T6, panel of 374 wild-type kinases (Homo sapiens, UniProt P11802)
T6 construct: purchased Reaction Biology Corporation

[7] = target: T7, panel of 374 wild-type kinases (Homo sapiens, UniProt Q9Y3S1); details: read-out: % Enzyme Activity (relative to DMSO controls), kinase WNK2
T7 construct: purchased Reaction Biology Corporation

[8] = target: T8, panel of 374 wild-type kinases (Homo sapiens, UniProt Q9NRH2); details: read-out: % Enzyme Activity (relative to DMSO controls), kinase SNRK
T8 construct: purchased Reaction Biology Corporation
T8 sequence (Q9NRH2 1-765): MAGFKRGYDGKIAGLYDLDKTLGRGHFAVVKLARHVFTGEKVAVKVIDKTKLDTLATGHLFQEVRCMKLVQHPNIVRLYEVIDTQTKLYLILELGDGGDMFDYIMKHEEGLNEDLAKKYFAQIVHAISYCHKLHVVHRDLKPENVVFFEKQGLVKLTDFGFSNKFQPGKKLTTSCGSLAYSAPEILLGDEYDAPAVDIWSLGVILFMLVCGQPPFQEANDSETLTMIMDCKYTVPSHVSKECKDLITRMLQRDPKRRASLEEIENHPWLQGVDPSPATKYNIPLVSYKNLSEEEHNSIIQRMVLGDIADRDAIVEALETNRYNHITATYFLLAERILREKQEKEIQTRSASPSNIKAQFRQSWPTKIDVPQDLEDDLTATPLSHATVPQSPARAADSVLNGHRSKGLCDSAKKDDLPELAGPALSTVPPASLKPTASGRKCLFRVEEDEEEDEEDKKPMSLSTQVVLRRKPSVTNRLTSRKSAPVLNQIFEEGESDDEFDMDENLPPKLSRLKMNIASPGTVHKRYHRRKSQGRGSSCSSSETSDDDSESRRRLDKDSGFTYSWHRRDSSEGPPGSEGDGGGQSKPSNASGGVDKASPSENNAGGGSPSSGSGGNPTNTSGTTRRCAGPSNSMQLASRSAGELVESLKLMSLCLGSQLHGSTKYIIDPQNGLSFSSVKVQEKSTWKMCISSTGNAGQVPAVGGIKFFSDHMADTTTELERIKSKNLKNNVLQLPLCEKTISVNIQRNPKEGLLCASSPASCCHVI

[9] = target: T9, panel of 374 wild-type kinases (Homo sapiens, UniProt Q86UE8); details: read-out: % Enzyme Activity (relative to DMSO controls), kinase TLK2
T9 construct: purchased Reaction Biology Corporation

[10] = target: T10, panel of 374 wild-type kinases (Homo sapiens, UniProt P51617); details: read-out: % Enzyme Activity (relative to DMSO controls), IRAK1
T10 construct: purchased Reaction Biology Corporation

[11] = read-out: % Enzyme Activity (relative to DMSO controls), CDK3/cyclin E2
[12] = read-out: % Enzyme Activity (relative to DMSO controls), CDK3/cyclin E
[13] = read-out: % Enzyme Activity (relative to DMSO controls), CDK4/cyclin D1
[14] = read-out: % Enzyme Activity (relative to DMSO controls), CDK4/cyclin D3

T1 sequence (Q14680 whole entry): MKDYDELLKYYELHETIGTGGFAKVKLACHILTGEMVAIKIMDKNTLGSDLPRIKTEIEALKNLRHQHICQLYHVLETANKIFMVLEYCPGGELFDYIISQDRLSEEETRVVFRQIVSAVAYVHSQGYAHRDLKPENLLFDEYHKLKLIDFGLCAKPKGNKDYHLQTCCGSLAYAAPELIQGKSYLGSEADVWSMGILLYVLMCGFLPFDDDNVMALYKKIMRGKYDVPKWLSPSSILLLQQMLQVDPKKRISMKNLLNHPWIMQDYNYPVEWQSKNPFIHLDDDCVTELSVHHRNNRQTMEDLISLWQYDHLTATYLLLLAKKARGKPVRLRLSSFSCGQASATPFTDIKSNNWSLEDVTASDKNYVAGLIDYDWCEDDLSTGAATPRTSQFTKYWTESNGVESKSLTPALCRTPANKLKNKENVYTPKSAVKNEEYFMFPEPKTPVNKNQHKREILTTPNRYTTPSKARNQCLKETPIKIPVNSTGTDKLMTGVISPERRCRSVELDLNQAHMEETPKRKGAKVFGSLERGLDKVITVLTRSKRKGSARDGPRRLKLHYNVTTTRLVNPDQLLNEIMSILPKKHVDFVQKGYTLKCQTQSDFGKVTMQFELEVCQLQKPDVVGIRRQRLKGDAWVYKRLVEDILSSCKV
T10 sequence (P51617 whole entry): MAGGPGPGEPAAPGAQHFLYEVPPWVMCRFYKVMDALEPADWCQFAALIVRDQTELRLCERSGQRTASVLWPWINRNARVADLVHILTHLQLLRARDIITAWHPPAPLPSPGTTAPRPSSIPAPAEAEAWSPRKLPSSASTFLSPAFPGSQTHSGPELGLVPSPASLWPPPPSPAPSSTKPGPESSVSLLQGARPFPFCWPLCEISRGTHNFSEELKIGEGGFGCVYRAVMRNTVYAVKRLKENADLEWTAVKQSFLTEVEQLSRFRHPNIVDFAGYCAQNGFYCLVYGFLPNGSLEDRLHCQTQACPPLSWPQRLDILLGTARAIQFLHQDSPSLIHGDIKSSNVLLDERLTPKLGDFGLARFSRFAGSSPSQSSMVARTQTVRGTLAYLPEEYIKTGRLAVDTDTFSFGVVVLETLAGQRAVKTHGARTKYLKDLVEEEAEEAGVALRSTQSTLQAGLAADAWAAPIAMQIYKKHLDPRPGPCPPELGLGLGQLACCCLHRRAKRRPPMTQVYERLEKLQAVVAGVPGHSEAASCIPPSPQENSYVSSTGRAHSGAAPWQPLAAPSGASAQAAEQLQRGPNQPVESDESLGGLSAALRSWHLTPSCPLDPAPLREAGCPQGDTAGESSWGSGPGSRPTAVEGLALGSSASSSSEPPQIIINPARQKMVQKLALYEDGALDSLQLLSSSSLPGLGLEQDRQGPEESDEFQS
T7 sequence (Q9Y3S1 whole entry): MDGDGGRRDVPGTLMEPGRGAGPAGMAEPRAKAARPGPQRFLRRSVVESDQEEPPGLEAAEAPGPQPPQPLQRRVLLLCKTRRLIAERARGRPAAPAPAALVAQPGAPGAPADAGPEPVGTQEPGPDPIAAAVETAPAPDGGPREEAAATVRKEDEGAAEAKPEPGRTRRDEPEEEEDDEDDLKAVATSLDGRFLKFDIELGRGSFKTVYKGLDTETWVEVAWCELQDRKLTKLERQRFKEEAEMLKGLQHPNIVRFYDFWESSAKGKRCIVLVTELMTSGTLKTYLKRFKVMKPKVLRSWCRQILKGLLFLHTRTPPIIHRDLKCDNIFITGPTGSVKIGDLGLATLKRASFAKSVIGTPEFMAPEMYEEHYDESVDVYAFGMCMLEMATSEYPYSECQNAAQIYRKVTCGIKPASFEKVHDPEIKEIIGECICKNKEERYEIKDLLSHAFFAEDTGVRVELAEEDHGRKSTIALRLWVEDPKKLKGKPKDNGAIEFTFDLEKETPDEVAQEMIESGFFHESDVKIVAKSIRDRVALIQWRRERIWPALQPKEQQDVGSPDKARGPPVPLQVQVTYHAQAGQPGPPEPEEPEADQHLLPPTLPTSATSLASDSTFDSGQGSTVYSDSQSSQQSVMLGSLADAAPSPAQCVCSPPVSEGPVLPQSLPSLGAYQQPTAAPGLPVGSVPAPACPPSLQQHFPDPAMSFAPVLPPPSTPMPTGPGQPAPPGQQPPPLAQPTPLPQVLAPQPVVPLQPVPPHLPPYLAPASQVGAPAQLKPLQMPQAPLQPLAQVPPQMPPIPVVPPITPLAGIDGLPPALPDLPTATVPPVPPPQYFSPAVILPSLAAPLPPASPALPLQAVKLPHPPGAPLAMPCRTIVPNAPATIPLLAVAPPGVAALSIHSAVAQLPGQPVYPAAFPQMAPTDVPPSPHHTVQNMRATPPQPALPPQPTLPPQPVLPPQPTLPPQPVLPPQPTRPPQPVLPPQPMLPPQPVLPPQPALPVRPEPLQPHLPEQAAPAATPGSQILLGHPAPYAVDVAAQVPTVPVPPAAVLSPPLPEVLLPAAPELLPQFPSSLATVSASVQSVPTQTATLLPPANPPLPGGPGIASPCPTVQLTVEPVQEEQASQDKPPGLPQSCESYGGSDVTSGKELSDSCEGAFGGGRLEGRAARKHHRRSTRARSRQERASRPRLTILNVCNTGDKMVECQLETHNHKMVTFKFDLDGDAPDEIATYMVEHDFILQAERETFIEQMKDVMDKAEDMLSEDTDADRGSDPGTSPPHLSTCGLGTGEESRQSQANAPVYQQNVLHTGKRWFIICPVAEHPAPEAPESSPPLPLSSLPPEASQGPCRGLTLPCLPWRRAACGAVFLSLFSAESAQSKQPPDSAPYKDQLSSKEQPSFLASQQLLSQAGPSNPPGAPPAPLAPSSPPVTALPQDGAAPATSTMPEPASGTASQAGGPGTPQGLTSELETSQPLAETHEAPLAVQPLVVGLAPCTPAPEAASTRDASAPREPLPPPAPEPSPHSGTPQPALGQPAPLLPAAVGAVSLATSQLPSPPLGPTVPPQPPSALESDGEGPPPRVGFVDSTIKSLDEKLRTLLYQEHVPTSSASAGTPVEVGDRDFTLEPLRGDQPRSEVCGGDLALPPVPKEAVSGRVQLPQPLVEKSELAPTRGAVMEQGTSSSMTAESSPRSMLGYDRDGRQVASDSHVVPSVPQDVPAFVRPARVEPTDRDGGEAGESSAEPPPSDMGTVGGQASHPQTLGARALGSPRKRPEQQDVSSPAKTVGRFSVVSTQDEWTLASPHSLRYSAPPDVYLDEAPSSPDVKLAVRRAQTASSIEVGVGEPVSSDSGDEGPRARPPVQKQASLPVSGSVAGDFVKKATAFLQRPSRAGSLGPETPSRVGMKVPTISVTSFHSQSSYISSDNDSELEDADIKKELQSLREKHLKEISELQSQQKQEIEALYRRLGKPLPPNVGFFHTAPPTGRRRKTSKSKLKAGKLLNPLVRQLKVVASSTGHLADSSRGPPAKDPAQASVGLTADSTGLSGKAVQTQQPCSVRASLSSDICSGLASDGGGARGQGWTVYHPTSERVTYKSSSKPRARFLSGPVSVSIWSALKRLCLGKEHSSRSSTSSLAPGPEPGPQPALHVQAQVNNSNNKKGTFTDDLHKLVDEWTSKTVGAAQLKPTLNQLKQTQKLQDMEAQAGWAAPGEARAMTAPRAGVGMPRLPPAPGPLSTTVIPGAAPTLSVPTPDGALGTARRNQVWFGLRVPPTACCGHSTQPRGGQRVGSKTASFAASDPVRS
T5 sequence (Q16513 whole entry): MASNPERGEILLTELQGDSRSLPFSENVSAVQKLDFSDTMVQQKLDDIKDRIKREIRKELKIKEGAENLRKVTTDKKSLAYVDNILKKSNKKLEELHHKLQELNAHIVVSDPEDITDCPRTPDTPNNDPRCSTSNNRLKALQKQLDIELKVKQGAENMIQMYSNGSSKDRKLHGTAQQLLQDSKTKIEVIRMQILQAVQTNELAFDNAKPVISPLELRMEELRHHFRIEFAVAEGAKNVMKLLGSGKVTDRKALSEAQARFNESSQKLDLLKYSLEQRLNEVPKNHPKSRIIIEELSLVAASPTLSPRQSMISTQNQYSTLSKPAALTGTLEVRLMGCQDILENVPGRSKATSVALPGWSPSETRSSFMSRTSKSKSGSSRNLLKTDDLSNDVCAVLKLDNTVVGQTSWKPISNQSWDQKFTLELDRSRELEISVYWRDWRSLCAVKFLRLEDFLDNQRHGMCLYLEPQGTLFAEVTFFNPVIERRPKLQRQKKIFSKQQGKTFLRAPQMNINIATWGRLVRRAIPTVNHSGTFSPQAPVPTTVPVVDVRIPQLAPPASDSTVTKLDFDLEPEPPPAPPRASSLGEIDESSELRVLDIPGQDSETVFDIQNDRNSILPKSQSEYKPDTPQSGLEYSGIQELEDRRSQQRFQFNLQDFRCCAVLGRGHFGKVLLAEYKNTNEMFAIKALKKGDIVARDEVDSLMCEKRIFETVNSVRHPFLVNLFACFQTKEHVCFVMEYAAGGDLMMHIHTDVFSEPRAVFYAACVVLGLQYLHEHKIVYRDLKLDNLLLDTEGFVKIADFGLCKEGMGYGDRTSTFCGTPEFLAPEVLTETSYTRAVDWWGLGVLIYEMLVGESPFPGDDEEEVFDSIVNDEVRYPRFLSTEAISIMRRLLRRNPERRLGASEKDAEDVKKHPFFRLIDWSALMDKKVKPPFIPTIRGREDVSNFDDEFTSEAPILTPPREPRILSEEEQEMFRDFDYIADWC
T4 sequence (Q00526 whole entry): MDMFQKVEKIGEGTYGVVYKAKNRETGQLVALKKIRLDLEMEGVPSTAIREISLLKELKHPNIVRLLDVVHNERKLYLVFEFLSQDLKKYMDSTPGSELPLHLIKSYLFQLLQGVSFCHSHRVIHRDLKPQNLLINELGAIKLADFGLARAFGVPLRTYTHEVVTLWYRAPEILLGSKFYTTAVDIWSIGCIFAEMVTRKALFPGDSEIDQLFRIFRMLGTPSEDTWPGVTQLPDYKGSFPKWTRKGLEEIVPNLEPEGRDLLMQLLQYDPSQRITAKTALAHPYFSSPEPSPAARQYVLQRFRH

## O=C(Nc1cnn(-c2csc(C(=O)NC3COC3)c2)c1)Nc1c(F)cccc1Cl [Compound 25, 4-(4-(3-(2-chloro-6-fluorophenyl)ureido)-1H-pyrazol-1-yl)-N-(oxetan-3-yl)thiophene-2-carboxamide]
[1]
  remaining activity at 5 µM: 61.4%
[2]
  remaining activity at 5 µM: 93.8%
[3]
  remaining activity at 5 µM: 81.8%
[4]; [11]
  remaining activity at 5 µM: 109%
[4]; [12]
  remaining activity at 5 µM: 92.2%
[5]; kinase PKN2/PRK2, read-out: % Enzyme Activity (relative to DMSO controls)
  remaining activity at 5 µM: 105%
[6]; [13]
  remaining activity at 5 µM: 90.3%
[6]; [14]
  remaining activity at 5 µM: 79.4%
[7]
  remaining activity at 5 µM: 91.9%
[8]
  remaining activity at 5 µM: 98.8%
[9]
  remaining activity at 5 µM: 109%
[10]
  remaining activity at 5 µM: 107%

## O=C(Nc1cnn(-c2csc(C(=O)NC3COC3)c2)c1)Nc1ccccc1Cl [Compound 17, 4-(4-(3-(2-chlorophenyl)ureido)-1H-pyrazol-1-yl)-N-(oxetan-3-yl)thiophene-2-carboxamide]
[1]
  remaining activity at 5 µM: 48.7%
[2]
  remaining activity at 5 µM: 103%
[3]
  remaining activity at 5 µM: 99.3%
[4]; [11]
  remaining activity at 5 µM: 95.8%
[4]; [12]
  remaining activity at 5 µM: 107%
[5]; read-out: % Enzyme Activity (relative to DMSO controls), kinase PKN2/PRK2
  remaining activity at 5 µM: 112%
[6]; [13]
  remaining activity at 5 µM: 92.2%
[6]; [14]
  remaining activity at 5 µM: 98.2%
[7]
  remaining activity at 5 µM: 96.3%
[8]
  remaining activity at 5 µM: 96.8%
[9]
  remaining activity at 5 µM: 99.1%
[10]
  remaining activity at 5 µM: 112%

## Cc1sc(C(=O)NC2COC2)cc1-n1cc(NC(=O)Nc2c(F)cccc2Cl)cn1 [Compound 27, 4-(4-(3-(2-chloro-6-fluorophenyl)ureido)-1H-pyrazol-1-yl)-5-methyl-N-(oxetan-3-yl)thiophene-2-carboxamide]
[1]; 10 uM
  remaining activity at 10 µM: 103%
[2]; 10 uM
  remaining activity at 10 µM: 91.7%
[3]; 10 uM
  remaining activity at 10 µM: 87.6%
[4]; [11]
  remaining activity at 10 µM: 103%
[4]; [12]
  remaining activity at 10 µM: 91.2%
[5]; read-out: % Enzyme Activity (relative to DMSO controls), kinase PKN2/PRK2, 10 uM
  remaining activity at 10 µM: 87.1%
[6]; [13]
  remaining activity at 10 µM: 78%
[6]; [14]
  remaining activity at 10 µM: 96.5%
[7]; 10 uM
  remaining activity at 10 µM: 91.1%
[8]; 10 uM
  remaining activity at 10 µM: 102%
[9]; 10 uM
  remaining activity at 10 µM: 97.2%
[10]; 10 uM
  remaining activity at 10 µM: 79.9%
